Measured values from patent publication US20220401619A1, “A COLLAGEN SCAFFOLD” (ROYAL COLLEGE OF SURGEONS IN IRELAND, priority 2019, published 2022).

Assay: Antibiotic release profile from scaffolds over 60 days
Type: physicochemical
From the text: As shown in FIG. 3(A), in the dual-layer scaffold structure incorporating crosslinked and directly incorporated antibiotic produced as described above, the porous scaffold structure necessary for efficient tissue regeneration was maintained. In addition, the porosity (>98%) and mean pore size, essential for optimal proliferation and differentiation of osteoblasts during bone regeneration, were not compromised after the loading of the drug into the collagen structure. Depending on the incorporation method, different release kinetics of the antibiotic from the materials were obtained. […] At day 10, approximately 90% of the teicoplanin was released when it was directly loaded into the slurry during the CHA scaffold fabrication.

## teicoplanin
Day 10, directly loaded into the slurry during CHA scaffold fabrication
  teicoplanin released: approximately 90%
Day 60, chemically attached (crosslinked) to scaffold
  teicoplanin released: approximately 11%
